For assay [1], the system named is NFAT-driven luciferase activity in HEK293T cells. Kind of assay: In vivo calcineurin activity assay (NFAT dual luciferase reporter). Type of assay: cell-based. As to conditions: initial in vivo experiment, FK506 1 μM. The source says:
To test the degree to which in vitro MRBLE-pep affinities predict in vivo inhibition, we used a previously developed dual luciferase reporter assay to assess the activity of the NFAT2 transcription factor in HEK293T cells (Figure 6A) ([Grigoriu et al., 2013]). NFAT2 must be dephosphorylated by CN to accumulate in the nucleus, where it activates transcription of its target genes, and this interaction can be inhibited by peptides or small molecules that binds to CN. Reduction of NFAT2-dependent transcriptional activity upon expression of a competing PxIxIT peptide therefore reflects, quantitatively, the affinity of the inhibitor peptide for CN. Candidate PxIxIT inhibitors were co-expressed as GFP-fusion proteins within cells to enhance their stability and facilitate direct measurement of inhibitor concentrations.
PxIxIT peptides were fused to eGFP in pEGFPc1 vector. HEK293T cells were transfected with pEGFPc1 clones, pNFAT-Luc and CMV-Renilla in a 6-well plate format. 18 hr post transfection, 1μM FK506 or DMSO (vehicle) was added to the media as needed. […] 6 hr after pathway activation, cells were collected, washed in PBS and re-suspended in DMEM media. 80% of the cells were used to measure luciferase activity and renilla using the Dual-Glo assay system (Promega) with three technical replicates. The remaining cells were frozen and stored at −80°C. Cell lysates were prepared in RIPA buffer. 15–20 μg of lysate was analyzed by Western for expression of GFP. GFP signal was normalized to either actin or tubulin. Luciferase activity (normalized to renilla expression) was further normalized to eGFP expression. Data represent at least three experimental replicates.

The test system of the next assay is CN. Particulars: ref Fruman et al., 1992; cited from earlier work. The source says:
Consistent with MRBLE-pep measurements, ...

The next assay concerns the target T1, calcineurin (CN) (Homo sapiens, UniProt Q08209).
T1 construct: human calcineurin A isoforms (truncated at residue 400); made in house; host or cells: E. coli BL21 (DE3)
Kind of assay: MRBLE-pep calcineurin binding assay (concentration-dependent). Here is the method: MRBLEs were prepared by transferring a 20 μL aliquot from a 600 μL suspension (∼3000–8000 beads depending on pellet size) to a 100 μL PCR strip (20 μL for each CN concentration), exchanging buffer via 3 cycles of iterative pelleting, decanting, and resuspension with 0.1% PBST containing 5% BSA, pH = 7.5 (100 μL), and then left mixing at ∼5 °C on a rotator in the same wash buffer overnight (∼14 hr). MRBLEs were then buffer exchanged once again with CN binding buffer (50 mM Tris pH = 7.5, 150 mM NaCl, 0.1% TWEEN 20) via three iterative cycles of pelleting, decanting, and resuspension.
After incubation, MRBLEs were pelleted, decanted, and washed once with 0.1% PBST (100 μL). After a final round of pelleting and decanting, 20 μL of 0.1% PBST was added and the beads were transferred to a quartz microscope slide for imaging.
The affinity ( Kd ) for each peptide in a MBRLE library was determined via a two-step nonlinear regression using a single-site binding model:(1) Ii=(Imax[CNtotal])/(Kd,i+[CNtotal]) where Ii is the median measured fluorescence intensity for each peptide, Kd,i is the dissociation constant for that interaction, [ CNtotal ] is total CN concentration, and Imax is a global variable representing the fluorescence intensity once MRBLE-pep beads are saturated. First, we determined the global saturation value ( Imax ), by globally fitting the top 80% highest-intensity MRBLE codes. Next, we globally fit the entire data set using this Imax value to yield an estimated absolute affinity ( Kd ) for all peptides in the library. […] Differences in binding affinity were calculated relative to a reference peptide using the standard equation:(2) ΔΔG=RTln(Kd,i/Kd,ref)
Next, we used this reference value and calculated differences in binding affinity ( ΔΔG ) to estimate absolute Kd values for each peptide within the calibration and full calibration libraries (Figure 2—source data 1, Figure 2—source data 2, Figure 5—source data 1, Figure 5—source data 2, Figure 5—source data 3, Figure 5—source data 4).

Here are results for 4 compounds from PMC6728138, “Quantitative mapping of protein-peptide affinity landscapes using spectrally encoded beads” (eLife, 2019).

Where two headings read alike, the source gives them in different places. Ends that are not written are not given here.

T1 sequence (Q08209 1-400 limits assumed): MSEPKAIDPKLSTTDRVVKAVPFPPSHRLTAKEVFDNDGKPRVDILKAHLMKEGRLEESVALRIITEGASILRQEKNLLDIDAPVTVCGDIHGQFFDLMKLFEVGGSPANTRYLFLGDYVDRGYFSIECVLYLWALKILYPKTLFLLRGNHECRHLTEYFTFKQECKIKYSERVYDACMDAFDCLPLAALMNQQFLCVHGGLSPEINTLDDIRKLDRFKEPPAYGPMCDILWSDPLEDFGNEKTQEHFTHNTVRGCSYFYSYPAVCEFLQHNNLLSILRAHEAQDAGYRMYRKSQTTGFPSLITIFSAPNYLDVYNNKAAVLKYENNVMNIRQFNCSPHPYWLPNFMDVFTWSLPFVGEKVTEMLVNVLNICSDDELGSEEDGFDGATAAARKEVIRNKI
T1 sequence (P63098 whole entry partner, the tested form may be a part, canonical isoform): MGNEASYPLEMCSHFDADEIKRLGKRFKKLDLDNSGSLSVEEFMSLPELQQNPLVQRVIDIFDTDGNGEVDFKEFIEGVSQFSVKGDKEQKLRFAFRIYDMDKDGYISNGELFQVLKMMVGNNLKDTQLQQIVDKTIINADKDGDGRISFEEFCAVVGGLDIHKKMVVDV

Regarding `C=CC[C@@H]1/C=C(\C)C[C@H](C)C[C@H](OC)[C@H]2O[C@@](O)(C(=O)C(=O)N3CCCC[C@H]3C(=O)O[C@H](/C(C)=C/[C@@H]3CC[C@@H](O)[C@H](OC)C3)[C@H](C)[C@@H](O)CC1=O)[C@H](C)C[C@@H]2OC` [FK506], the “NFAT-driven luciferase activity, normalized to renilla and eGFP expression, relative to empty vector (Data)” value in assay [1] (replicate 1) turned out to be 0.09. Moreover, the “NFAT-driven luciferase activity, normalized, relative to empty vector (Data)” value is 0.08616 in assay [1] (replicate 2) and 0.09188 in assay [1] (replicate 3). In the assay with CN, the IC50 was around 0.5 nM.

Regarding HAVIVITGPH-NH2, the Kd on calcineurin (CN) (bold value over the codes, read-out: kd, 'Triplicate high' library) was 1270 ± 130 nM.

With HPSIVITGPH-NH2, the Kd at calcineurin (CN) (kd, 'Triplicate high' library) was determined as 880 ± 260 nM.

Regarding HPVIVVTGPH-NH2, the Kd was 2000 ± 400 nM on calcineurin (CN) (apparent Kd, 'Triplicate low' (Figure 2C, measure not given)) and 920 ± 250 nM on calcineurin (CN) (kd, 'Triplicate high' library).
